From paper PMC12605013, “SAG1.3-derived Frizzled-targeting small-molecule compounds” (The Journal of Biological Chemistry, 2025)
Read-outs that look alike come from different tables or passages of the source.

Legend:
Nluc-FZD6 = target: T1, Nluc-FZD6 (Homo sapiens, UniProt O60353); assay: BRET-based BODIPY-cyclopamine competition binding at Nluc-FZD6 in live HEK293 cells
T1 construct: expressed in transfected cells; host or cells: ΔSMO HEK293A or ΔFZD1–10 HEK293T cells (screen); ΔFZD1–10 HEK293T cells (concentration–response curves)
T1 sequence (O60353 19-706): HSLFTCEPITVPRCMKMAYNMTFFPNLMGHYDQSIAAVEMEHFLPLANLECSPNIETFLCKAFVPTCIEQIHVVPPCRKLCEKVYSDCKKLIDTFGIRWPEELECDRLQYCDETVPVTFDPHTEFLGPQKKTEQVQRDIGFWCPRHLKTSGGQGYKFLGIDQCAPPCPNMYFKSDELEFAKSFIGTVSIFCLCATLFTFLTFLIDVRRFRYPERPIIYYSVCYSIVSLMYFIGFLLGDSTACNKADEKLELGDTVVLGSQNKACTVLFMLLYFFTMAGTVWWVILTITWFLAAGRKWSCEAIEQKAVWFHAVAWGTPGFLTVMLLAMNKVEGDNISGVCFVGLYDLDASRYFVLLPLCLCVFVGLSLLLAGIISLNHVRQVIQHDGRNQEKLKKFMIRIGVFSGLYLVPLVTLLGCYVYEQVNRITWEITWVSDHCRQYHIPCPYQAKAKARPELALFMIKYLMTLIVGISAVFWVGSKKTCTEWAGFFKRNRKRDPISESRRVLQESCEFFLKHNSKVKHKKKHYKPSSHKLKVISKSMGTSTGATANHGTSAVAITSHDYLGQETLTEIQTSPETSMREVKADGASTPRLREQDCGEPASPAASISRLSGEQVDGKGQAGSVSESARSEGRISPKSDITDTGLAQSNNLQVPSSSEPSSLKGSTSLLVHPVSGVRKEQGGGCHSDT
Experimental: After 24 h, cells were washed once with Hanks' balanced salt solution (HBSS), followed by the addition of 80 μl of HBSS. Next, 10 μl of the competitive ligand, that is, the tested SAG1.3 derivative (either in different concentrations for the concentration–response curves or at a final concentration of 10 μM for the first screens) and 10 μl of the fluorescent tracer BODIPY–cyclopamine (final concentration: 300 nM for the first screens, 200 nM for the concentration–response experiments) were added. All serial dilutions were prepared in HBSS. The cells were incubated for 90 min at 37 °C without additional CO2, after which 10 μl of luciferase substrate diluted in HBSS (furimazine; Promega, N1572, final dilution: 1:1000 for first screening) and coelenterazine h (Biosynth; final concentration: 5 μM for concentration–response experiments) were added to the cells. Following a 10 min incubation period in the dark, the measurement was started on a BMG Labtech ClarioStar or TECAN Spark multimode microplate reader, prewarmed to 37 °C. Nluc bioluminescence was detected between 460 and 490 nm (ClarioStar) or 460 and 500 nm (TECAN Spark). The emission of the fluorescent tracer was detected between 520 and 550 nm (ClarioStar) or between 520 and 560 nm (TECAN Spark).
For each binding experiment, the measurement was repeated five times and averaged for the analysis. ΔBRET values were obtained by subtracting the BRET ratio obtained in wells containing BODIPY–cyclopamine but no competitive ligand (100% value). The BRET values for full displacement were defined using “donor-only” control wells, which contained Nluc-FZDx-transfected cells but no BODIPY–cyclopamine.
For the full concentration–response BRET binding curves in Figure 2, BRET values were normalized (separately for each experiment) to control wells containing BODIPY–cyclopamine but no competitive ligand (100% value) and “donor-only” wells (0% value, described previously). […] Obtained IC50 values were transformed to pIC50 values, which were subsequently averaged between experiments. Displacement curves showing the non-normalized data (ΔBRET values generated as described previously) can be found in Fig. S2.
Shown are mean values and SDs from N independent experiments (N = 2-8) performed in duplicate.
Shown are mean values ± SEM from N independent experiments performed in triplicate.

Nluc-FZD7 = target: T2, Nluc-FZD7 (Homo sapiens, UniProt O75084); assay: BRET-based BODIPY-cyclopamine competition binding at Nluc-FZD7; details: BODIPY-cyclopamine 200 nM; ΔFZD1-10 HEK293T cells; read-out: pIC50 (11) mean ± SEM, Nluc-FZD7 (converted)
T2 construct: expressed in transfected cells; host or cells: ΔFZD1–10 HEK293T cells
Experimental: After 24 h, cells were washed once with Hanks' balanced salt solution (HBSS), followed by the addition of 80 μl of HBSS. Next, 10 μl of the competitive ligand, that is, the tested SAG1.3 derivative (either in different concentrations for the concentration–response curves or at a final concentration of 10 μM for the first screens) and 10 μl of the fluorescent tracer BODIPY–cyclopamine (final concentration: 300 nM for the first screens, 200 nM for the concentration–response experiments) were added. All serial dilutions were prepared in HBSS. The cells were incubated for 90 min at 37 °C without additional CO2, after which 10 μl of luciferase substrate diluted in HBSS (furimazine; Promega, N1572, final dilution: 1:1000 for first screening) and coelenterazine h (Biosynth; final concentration: 5 μM for concentration–response experiments) were added to the cells. Following a 10 min incubation period in the dark, the measurement was started on a BMG Labtech ClarioStar or TECAN Spark multimode microplate reader, prewarmed to 37 °C. Nluc bioluminescence was detected between 460 and 490 nm (ClarioStar) or 460 and 500 nm (TECAN Spark). The emission of the fluorescent tracer was detected between 520 and 550 nm (ClarioStar) or between 520 and 560 nm (TECAN Spark). […]

human FZD5 = assay: TOPFlash reporter gene assay in ΔFZD1–10 HEK293T cells transfected with HiBiT-FZD5; type: cell-based; details: for IC50: Homo sapiens, HEK-293T, 300 ng/ml WNT-3A, HiBiT-FZD5

CC(=O)Nc1cccc(C(=O)NC2CCC(N(Cc3cccc(-c4ccncc4)c3)C(=O)c3sc4ccccc4c3Cl)CC2)c1 (stereo not drawn) [compound 11, N-((1r,4r)-4-(3-Acetamidobenzamido)cyclohexyl)-3-chloro-N-(3-(pyridin-4-yl)benzyl)benzo[b]thiophene-2-carboxamide]
Displacement @ 10 µM compound (Nluc-FZD6) ΔBRET (Nluc-FZD6; 10 µM compound, BODIPY-cyclopamine 300 nM, BMG Labtech ClarioStar reader (complete tracer displacement: net BRET = -0.02736)): -0.0228
Displacement % (Nluc-FZD6; 10 µM compound, BODIPY-cyclopamine 300 nM, ClarioStar reader): 83.2%
IC50 (Nluc-FZD6; BODIPY-cyclopamine 200 nM, ΔFZD1-10 HEK293T cells, read-out: pIC50 (Nluc-FZD6) mean ± SEM (converted)): 1020 nM
IC50 values of competition binding within the FZD family (in words) (Nluc-FZD6; Nluc-FZD6 and other FZD paralogs): three-digit nanomolar to single-digit micromolar range
IC50 (Nluc-FZD7): 891 nM
IC50 (human FZD5; equal to the pIC50, read-out: IC50, inhibition of WNT-3A-induced TOPFlash response): 1200 nM
IC50 (human FZD5; read-out: pIC50, inhibition of WNT-3A-induced TOPFlash response (converted)): 1200 nM
Effect on WNT surrogate-induced TOPFlash signal (human FZD5; WNT surrogate 250 pM, coaddition of compound): could also be blocked
TOPFlash response to compound alone (human FZD5; absence of added WNT-3A): not inducing any effect
